Source: BindingDB's records for doi:10.1038/nchembio.137 (University of Texas Southwestern Medical Center, 2009)

Target: T1, Protein Wnt-2 (Mus musculus, UniProt P21552)
T1 sequence (P21552 whole entry): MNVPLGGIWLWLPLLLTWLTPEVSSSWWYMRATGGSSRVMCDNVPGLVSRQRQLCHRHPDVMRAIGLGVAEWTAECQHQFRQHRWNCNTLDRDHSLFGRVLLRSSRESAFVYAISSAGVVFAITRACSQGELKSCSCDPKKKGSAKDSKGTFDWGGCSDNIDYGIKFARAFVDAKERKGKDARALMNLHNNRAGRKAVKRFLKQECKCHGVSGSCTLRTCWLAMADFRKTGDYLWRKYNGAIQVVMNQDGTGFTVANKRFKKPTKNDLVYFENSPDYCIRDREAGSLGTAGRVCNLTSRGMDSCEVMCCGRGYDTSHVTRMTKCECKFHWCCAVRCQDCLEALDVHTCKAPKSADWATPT
Experiment: Wnt Inhibition Assay
Details: pH 7.4; 4 °C
Source text: Inhibition assay of Wnt response treated with exogenously supplied of Wnt protein ('exogenous Wnt' test)

IC50 [nM]	Structure (SMILES)
58	O=C(Nc1cccc2cccnc12)c1ccc(-n2c(O)c3c(c2O)[C@H]2C=C[C@@H]3C2)cc1
25	N#Cc1ccccc1Cn1c(=O)n(C[C@H]2CC[C@H](C(=O)NCc3ccccc3)CC2)c(=O)c2ccccc21 [CID15993586]
27	Cc1ccnc2c(NC(=O)c3ccc(-n4c(O)c5c(c4O)[C@H]4C=C[C@@H]5C4)cc3)cccc12 [CID25093486]
40	Cc1cccc2nc(Cn3c(=O)n(C[C@H]4CC[C@H](C(=O)NCc5ccccc5)CC4)c(=O)c4ccccc43)cc(=O)n12 [CID15995771]
